Data taken from patent US9181273B2, “Morpholine-spirocyclic piperidine amides as modulators of ion channels” (Vertex Pharmaceuticals Incorporated, priority 2011, dated 2015).

target: human NaV subtype, like NaV 1.7 (Homo sapiens, UniProt Q15858); test: E-VIPR optical membrane potential assay with electrical stimulation; assay type: cell-based; settings: active against one or more sodium channels; assay and NaV subtype not specified for Table 3; read-out: IC50 Binned Activity Data
From the text: Sodium channels are voltage-dependent proteins that can be activated by inducing membrane voltage changes by applying electric fields. […] The instrument comprises a microtiter plate handler, an optical system for exciting the coumarin dye while simultaneously recording the coumarin and oxonol emissions, a waveform generator, a current- or voltage-controlled amplifier, and a device for inserting electrodes in well. Under integrated computer control, this instrument passes user-programmed electrical stimulus protocols to cells within the wells of the microtiter plate.
24 hours before the assay on E-VIPR, HEK cells expressing human NaV subtype, like NaV 1.7, are seeded in 384-well poly-lysine coated plates at 15,000-20,000 cells per well. Other subtypes are performed in an analogous mode in a cell line expressing the NaV of interest. […] Cells are grown in vented cap flasks, in 90% humidity and 10% CO2, to 100% confluence. They are usually split by trypsinization 1:10 or 1:20, depending on scheduling needs, and grown for 2-3 days before the next split.
To make the solution Add volume of 10% Pluronic F127 stock equal to volumes of CC2-DMPE+DiSBAC6(3). The order of preparation is first mix Pluronic and CC2-DMPE, then add DiSBAC6(3) while vortexing, then add Bath1+β-Cyclodextrin.
1) Pre-spot compounds (in neat DMSO) into compound plates. […] Final compound plate volume will be 80 μL (80-fold intermediate dilution from 1 μL DMSO spot; 160-fold final dilution after transfer to cell plate).
2) Prepare Hexyl Dye Solution.
3) Prepare cell plates. On the day of the assay, medium is aspirated and cells are washed three times with 100 μL of Bath1 Solution, maintaining 25 μL residual volume in each well.
4) Dispense 25 μL per well of Hexyl Dye Solution into cell plates. Incubate for 20-35 minutes at room temp or ambient conditions.
5) Dispense 80 μL per well of Bath1 into compound plates. Acid Yellow-17 (1 mM) is added and Potassium Chloride can be altered from 4.5 to 20 mM depending on the NaV subtype and assay sensitivity.
6) Wash cell plates three times with 100 μL per well of Bath1, leaving 25 μL of residual volume. Then transfer 25 uL per well from Compound Plates to Cell Plates. Incubate for 20-35 minutes at room temp/ambient condition
7) Read Plate on E-VIPR. Use the current-controlled amplifier to deliver stimulation wave pulses for typically 9 seconds and a scan rate of 400 Hz. A pre-stimulus recording is performed for 0.5 seconds to obtain the un-stimulated intensities baseline. The stimulatory waveform is applied for 9 seconds followed by 0.5 seconds of post-stimulation recording to examine the relaxation to the resting state. The stimulatory waveform of the electrical stimulation is specific for each cell type and can vary the magnitude, duration and frequency of the applied current to provide an optimal assay signal.
Data are analyzed and reported as normalized ratios of background-subtracted emission intensities measured in the 460 nm and 580 nm channels. Background intensities are then subtracted from each assay channel. Background intensities are obtained by measuring the emission intensities during the same time periods from identically treated assay wells in which there are no cells. The response as a function of time is then reported as the ratios obtained using the following formula: […]
The data is further reduced by calculating the initial (Ri) and final (Rf) ratios. These are the average ratio values during part or all of the pre-stimulation period, and during sample points during the stimulation period. The response to the stimulus R=Rf/Ri is then calculated and reported as a function of time.
Control responses are obtained by performing assays in the presence of a compound with the desired properties (positive control), such as tetracaine, and in the absence of pharmacological agents (negative control). Responses to the negative (N) and positive (P) controls are calculated as above. The compound antagonist activity A is defined as: […]

Chain of human NaV subtype, like NaV 1.7 (Q15858 whole entry): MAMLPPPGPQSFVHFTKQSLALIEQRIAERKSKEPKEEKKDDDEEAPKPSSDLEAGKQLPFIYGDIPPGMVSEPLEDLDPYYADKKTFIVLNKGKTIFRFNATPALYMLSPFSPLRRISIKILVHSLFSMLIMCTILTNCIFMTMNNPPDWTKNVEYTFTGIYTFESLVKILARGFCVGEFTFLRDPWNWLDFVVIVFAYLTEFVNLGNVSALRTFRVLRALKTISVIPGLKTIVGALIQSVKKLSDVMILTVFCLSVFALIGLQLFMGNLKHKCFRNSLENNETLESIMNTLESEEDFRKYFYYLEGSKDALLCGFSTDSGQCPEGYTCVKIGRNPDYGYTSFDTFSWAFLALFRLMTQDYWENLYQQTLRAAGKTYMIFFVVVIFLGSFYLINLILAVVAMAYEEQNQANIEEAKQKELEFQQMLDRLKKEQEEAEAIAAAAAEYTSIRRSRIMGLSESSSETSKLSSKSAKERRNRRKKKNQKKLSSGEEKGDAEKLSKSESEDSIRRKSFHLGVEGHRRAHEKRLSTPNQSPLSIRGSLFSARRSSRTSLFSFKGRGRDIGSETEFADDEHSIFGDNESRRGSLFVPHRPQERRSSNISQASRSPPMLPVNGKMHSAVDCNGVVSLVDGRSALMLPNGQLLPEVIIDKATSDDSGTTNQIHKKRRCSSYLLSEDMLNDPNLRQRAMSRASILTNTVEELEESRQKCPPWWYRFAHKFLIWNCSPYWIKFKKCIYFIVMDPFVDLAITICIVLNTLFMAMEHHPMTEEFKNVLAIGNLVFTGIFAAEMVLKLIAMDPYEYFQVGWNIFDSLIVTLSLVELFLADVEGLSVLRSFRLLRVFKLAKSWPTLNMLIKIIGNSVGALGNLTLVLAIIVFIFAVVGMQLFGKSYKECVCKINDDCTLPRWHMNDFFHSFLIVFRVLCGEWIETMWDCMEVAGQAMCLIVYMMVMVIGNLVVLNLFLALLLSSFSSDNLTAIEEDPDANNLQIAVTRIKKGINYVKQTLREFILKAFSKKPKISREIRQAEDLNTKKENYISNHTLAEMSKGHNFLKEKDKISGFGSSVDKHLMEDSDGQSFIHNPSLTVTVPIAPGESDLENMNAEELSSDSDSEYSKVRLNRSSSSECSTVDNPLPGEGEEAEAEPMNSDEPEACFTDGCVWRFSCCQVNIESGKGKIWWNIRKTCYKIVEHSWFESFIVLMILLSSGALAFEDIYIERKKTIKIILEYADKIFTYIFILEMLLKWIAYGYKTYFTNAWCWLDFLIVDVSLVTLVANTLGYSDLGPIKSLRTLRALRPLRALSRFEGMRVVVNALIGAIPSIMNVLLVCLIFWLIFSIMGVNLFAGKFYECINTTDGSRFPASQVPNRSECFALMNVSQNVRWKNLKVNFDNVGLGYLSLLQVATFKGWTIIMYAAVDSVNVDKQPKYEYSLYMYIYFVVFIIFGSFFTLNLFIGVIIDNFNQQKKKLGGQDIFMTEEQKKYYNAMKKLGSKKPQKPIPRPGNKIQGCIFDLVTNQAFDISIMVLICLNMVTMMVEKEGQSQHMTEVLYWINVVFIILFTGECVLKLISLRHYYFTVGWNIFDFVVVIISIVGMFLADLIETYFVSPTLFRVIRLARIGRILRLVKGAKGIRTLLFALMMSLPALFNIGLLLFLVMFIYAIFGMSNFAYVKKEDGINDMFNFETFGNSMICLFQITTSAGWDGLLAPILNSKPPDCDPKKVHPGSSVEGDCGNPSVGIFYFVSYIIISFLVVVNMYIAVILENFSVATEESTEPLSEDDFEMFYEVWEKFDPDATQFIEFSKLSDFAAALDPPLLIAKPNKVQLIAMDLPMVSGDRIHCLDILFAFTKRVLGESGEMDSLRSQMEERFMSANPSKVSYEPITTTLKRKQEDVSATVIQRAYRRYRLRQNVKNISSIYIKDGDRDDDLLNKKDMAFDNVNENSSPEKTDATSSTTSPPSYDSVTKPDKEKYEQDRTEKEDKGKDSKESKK

Structure (SMILES)	IC50 [µM]
COCC1CN(CC#N)CC2(CCN(C(=O)c3ccc(OC(C)C)c(C)c3)CC2)O1 (stereo not drawn) [Compound 23]	> 5
COCC1CN(c2ncccn2)CC2(CCN(C(=O)c3ccc(S(=O)(=O)NC4CC4)cc3)CC2)O1 (stereo not drawn) [Compound 198]	> 5
Cc1cc(C(=O)N2CCC3(CC2)CN(C)CC(c2ccccc2)O3)ccc1OC(C)C (stereo not drawn) [Compound 7]	< 2
CC(C)(O)c1ccc(C(=O)N2CCC3(CC2)CN(CC(F)F)CC(c2ccccc2)O3)cc1 (stereo not drawn) [Compound 241]	2 to 5
CCC1CN(c2ccccn2)CC2(CCN(C(=O)c3ccc(C4(O)CCCC4)cc3)CC2)O1 (stereo not drawn) [Compound 288]	< 2
Cc1cc(C(=O)N2CCC3(CC2)CN(c2ncccn2)CC(CO)O3)ccc1OC(C)C (stereo not drawn) [Compound 92]	> 5
CC(C)Oc1ccc(C(=O)N2CCC3(CC2)CN(CC(F)(F)F)CC(c2ccccc2)O3)c(F)c1 (stereo not drawn) [Compound 135]	< 2
COCC1CN(c2ncccn2)CC2(CCN(C(=O)c3ccc(C(O)C(C)C)cc3)CC2)O1 (stereo not drawn) [Compound 197]	2 to 5
CC(C)(O)c1ccc(C(=O)N2CCC3(CC2)CN(CC(F)(F)F)CC(c2ccccc2)O3)cc1 (stereo not drawn) [Compound 105]	< 2
Cc1cc(C(=O)N2CCC3(CC2)CN(CC(F)F)CC(c2ccccc2F)O3)ccc1OC(C)C (stereo not drawn) [Compound 44]	< 2
Cc1cc(C2CN(CC(F)(F)F)CC3(CCN(C(=O)c4ccc(OC(C)C)c(F)c4)CC3)O2)n[nH]1 (stereo not drawn) [Compound 87]	2 to 5
CCC1CN(c2ccccn2)CC2(CCN(C(=O)c3ccc(C4(O)CCC4)c(C)c3)CC2)O1 (stereo not drawn) [Compound 176]	< 2
Cc1cc(C(=O)N2CCC3(CC2)CN(CC(F)F)CC(c2ccnn2C)O3)ccc1OC(C)C (stereo not drawn) [Compound 11]	< 2
CCC1CN(CC)CC2(CCN(C(=O)c3ccc(OC(C)C)c(C)c3)CC2)O1 (stereo not drawn) [Compound 34]	> 5
Cc1cnc(C2CN(C(C)(C)C)CC3(CCN(C(=O)c4ccc(OC(C)C)c(F)c4)CC3)O2)o1 (stereo not drawn) [Compound 268]	2 to 5
CC#CCN1CC(CC)OC2(CCN(C(=O)c3ccc(OC)c(C)c3)CC2)C1 (stereo not drawn) [Compound 141]	> 5
COCC1CN(c2ncccn2)CC2(CCN(C(=O)c3ccc(OC(C)C)c(CO)c3)CC2)O1 (stereo not drawn) [Compound 15]	> 5
COCC1CN(C2COC2)CC2(CCN(C(=O)c3ccc(OC(C)C)c(C)c3)CC2)O1 (stereo not drawn) [Compound 255]	> 5
COCC1CN(Cc2ccccc2F)CC2(CCN(C(=O)c3ccc(OC(C)C)c(C)c3)CC2)O1 (stereo not drawn) [Compound 102]	< 2

Structure (SMILES)	IC50 [µM]
COCC1CN(c2ncccn2)CC2(CCN(C(=O)c3ccc(C4(O)CCC4)c(C)c3)CC2)O1 (stereo not drawn) [Compound 93]	< 2
COCC1CN(c2ncccn2)CC2(CCN(C(=O)c3ccc(OCC(C)(C)O)c(C)c3)CC2)O1 (stereo not drawn) [Compound 216]	2 to 5
COc1cc(C(=O)N2CCC3(CC2)CN(CC(F)F)CC(c2cccc(C)n2)O3)ccc1OC(C)C (stereo not drawn) [Compound 253]	2 to 5
CC(C)Oc1ccc(C(=O)N2CCC3(CC2)CN(CC(F)F)CC(c2ccnn2C)O3)cc1F (stereo not drawn) [Compound 84]	> 5
CCC(CC)N1CC(COC)OC2(CCN(C(=O)c3ccc(OC(C)C)c(C)c3)CC2)C1 (stereo not drawn) [Compound 48]	< 2
COCC1CN(c2cccc(C(F)(F)F)c2)CC2(CCN(C(=O)c3ccc(C(C)(C)O)c(F)c3)CC2)O1 (stereo not drawn) [Compound 58]	< 2
Cc1cc(C(=O)N2CCC3(CC2)CN(Cc2ccccc2)CC(C(C)(C)O)O3)ccc1OC(C)C (stereo not drawn) [Compound 179]	> 5
Cc1cc(C(=O)N2CCC3(CC2)CN(C(C)C)CC(c2ccccc2)O3)ccc1OC(C)C (stereo not drawn) [Compound 281]	< 2
COc1cccc(C(=O)N2CCC3(CC2)CN(CC(F)F)CC(c2ccccc2)O3)n1 (stereo not drawn) [Compound 144]	2 to 5
Cc1cc(C(=O)N2CCC3(CC2)CN(c2ncccn2)CC(COC(C)C)O3)ccc1OC(C)C (stereo not drawn) [Compound 114]	< 2
Cc1cc(C(=O)N2CCC3(CC2)CN(CC(C)(C)O)CC(c2ccccc2)O3)ccc1OC(C)C (stereo not drawn) [Compound 24]	< 2
O=C(c1ccc(C(F)(F)F)cn1)N1CCC2(CC1)CN(CC(F)F)CC(c1ccccc1)O2 (stereo not drawn) [Compound 290]	> 5
COCC#Cc1ccc(C(=O)N2CCC3(CC2)CN(CC(F)(F)F)CC(c2ccccc2)O3)cc1F (stereo not drawn) [Compound 56]	2 to 5
CCn1nccc1C1CN(CC(F)F)CC2(CCN(C(=O)c3ccc(OC(C)C)c(C)c3)CC2)O1 (stereo not drawn) [Compound 20]	< 2
Cc1cccc(C2CN(CC(F)F)CC3(CCN(C(=O)c4ccc(C(C)(C)O)c(F)c4)CC3)O2)n1 (stereo not drawn) [Compound 80]	> 5
COCC1CN(CC(F)F)CC2(CCN(C(=O)c3ccc(OC(C)C)c(C)c3)CC2)O1 (stereo not drawn) [Compound 178]	< 2
Cc1cnc(C2CN(CC(F)(F)F)CC3(CCN(C(=O)c4ccc(OC(C)C)c(C)c4)CC3)O2)s1 (stereo not drawn) [Compound 196]	< 2
CC(C)(O)Cc1ccc(C(=O)N2CCC3(CC2)CN(CC(F)(F)F)CC(c2ccccc2)O3)cc1F (stereo not drawn) [Compound 39]	2 to 5
CCC1CN(c2ncccn2)CC2(CCN(C(=O)c3ccc(C4(O)CCCC4)c(C)c3)CC2)O1 (stereo not drawn) [Compound 50]	< 2

Structure (SMILES)	IC50 [µM]
COCC1CN(C2CCOCC2)CC2(CCN(C(=O)c3ccc(OC(C)C)c(C)c3)CC2)O1 (stereo not drawn) [Compound 270]	2 to 5
CCC1CN(c2ncccn2)CC2(CCN(C(=O)c3ccc(C4(O)CCC4)c(C)c3)CC2)O1 (stereo not drawn) [Compound 91]	< 2
Cc1noc(C2CN(Cc3ccccc3)CC3(CCN(C(=O)c4ccc(OC(C)C)c(C)c4)CC3)O2)n1 (stereo not drawn) [Compound 148]	2 to 5
COC(C)(C)COc1ccc(C(=O)N2CCC3(CC2)CN(CC(F)(F)F)CC(c2ccccc2)O3)cc1 (stereo not drawn) [Compound 60]	< 2
CCC#CCN1CC(COC)OC2(CCN(C(=O)c3ccc(OC(C)C)c(C)c3)CC2)C1 (stereo not drawn) [Compound 89]	< 2
CC(C)Oc1ccc(C(=O)N2CCC3(CC2)CN(CC(F)F)CC(c2ncco2)O3)cc1F (stereo not drawn) [Compound 243]	< 2
COCC1CN(Cc2c(F)cccc2F)CC2(CCN(C(=O)c3ccc(OC(C)C)c(C)c3)CC2)O1 (stereo not drawn) [Compound 66]	< 2
COc1cc(C(=O)N2CCC3(CC2)CN(CC(F)F)CC(c2ccccc2)O3)ccc1C(C)(C)O (stereo not drawn) [Compound 224]	< 2
COC(=O)C(C)(C)c1ccc(C(=O)N2CCC3(CC2)CN(CC(F)(F)F)CC(c2ccccc2)O3)cc1OC (stereo not drawn) [Compound 292]	2 to 5
COCC1CN(c2ccccn2)CC2(CCN(C(=O)c3ccc(OC(C)C)c(C)c3)CC2)O1 (stereo not drawn) [Compound 140]	< 2
CC(C)CS(=O)(=O)c1ccc(C(=O)N2CCC3(CC2)CN(CC(F)F)CC(c2ccc(F)cc2)O3)cc1 (stereo not drawn) [Compound 109]	2 to 5
Cc1cc(C(=O)N2CCC3(CC2)CN(CC(F)F)CC(c2ccc(Cl)cc2)O3)ccc1OC(C)C (stereo not drawn) [Compound 122]	> 5
CC(C)(C)Oc1ccc(C(=O)N2CCC3(CC2)CN(CC(F)(F)F)CC(c2ccccc2)O3)nc1 (stereo not drawn) [Compound 13]	< 2
Cc1cc(C(=O)N2CCC3(CC2)CN(CC(F)F)CC(c2nccn2C)O3)ccc1OC(C)C (stereo not drawn) [Compound 35]	> 5
CCC1CN(c2ncccn2)CC2(CCN(C(=O)c3ccc(S(=O)(=O)C(C)C)c(C)c3)CC2)O1 (stereo not drawn) [Compound 238]	2 to 5
COCC1CN(c2ccc(C)cn2)CC2(CCN(C(=O)c3ccc(OC(C)C)c(C)c3)CC2)O1 (stereo not drawn) [Compound 75]	< 2
COCC1CN(CC2CCOCC2)CC2(CCN(C(=O)c3ccc(OC(C)C)c(C)c3)CC2)O1 (stereo not drawn) [Compound 134]	> 5
CC(C)(C)S(=O)(=O)c1ccc(C(=O)N2CCC3(CC2)CN(CC(F)(F)F)CC(c2ccccc2)O3)cc1 (stereo not drawn) [Compound 12]	< 2
CC(C)Oc1ccc(C(=O)N2CCC3(CC2)CN(CC(F)F)CC(c2ccccc2Cl)O3)cc1F (stereo not drawn) [Compound 190]	< 2
